Results reported in patent publication EP0745595A1, “3-(3-Aryloxyphenyl)-1-(substituted methyl)-s-triazine-2,4,6-oxo or thiotrione herbicidal agents” (American Cyanamid Company, priority 1995, dated 1996).

How the values were obtained:
Type in all cases: in vivo
[1] = system: TRITICUM AESTIVUM, CV. APOLLO; experiment: Postemergence herbicidal evaluation, TRZAWO (Wheat, Winter, CV. APOLLO)
Method: In the tests, seedling plants are grown in jiffy flats for about two weeks. The test compounds are dispersed in 50/50 acetone/water mixtures containing 0.5% TWEEN®20, a polyoxyethylene sorbitan monolaurate surfactant of Atlas Chemical Industries, […] through a spray nozzle operating at 40 psi for a predetermined time. After spraying, the plants are placed on greenhouse benches and are cared for in the usual manner, commensurate with conventional greenhouse practices. From four to five weeks after treatment, the seedling plants are examined and rated according to the rating system set forth below. Where more than one test is involved for a given compound, the data are averaged.
Plant species employed in these evaluations are reported by header abbreviation, common name and scientific name.
Results of herbicide evaluation are expressed on a rating scale (0-9). The scale is based upon a visual observation of plant stand, vigor, malformation, size, chlorosis and overall plant appearance as compared with a control.

[2] = system: ECHINOCHLOA CRUS-GALLI, (L) BEAU; experiment: Postemergence herbicidal evaluation, ECHCG (Barnyardgrass); set-up: key to ECHCG rating / Herbicidal effect rating, ECHCG / ECHCG: 0-9 visual rating scale vs untreated control
Summary of the method: (§1)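 Two-week-old seedlings sprayed with compound in 50/50 acetone/water plus 0.5% TWEEN 20 at about 0.125–0.500 kg/ha via nozzle at 40 psi. Kept in greenhouse; rated visually 4–5 weeks after treatment on a 0–9 scale versus untreated control, averaging repeat tests.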

[3] = system: ORYZA SATIVA, L. TEBONNET; experiment: Rice tolerance to post-transplant applications under flooded paddy conditions, ORYSAT (Rice, Tebonnet); conditions: for Herbicidal effect rating, ORYSAT: 0.500 kg/ha, post-transplant rice, 3-4 weeks after treatment; for ORYSAT: post-transplanted rice
Summary of the method: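 Two ten-day-old Tebonnet rice seedlings transplanted into silt loam, flooded 1.5–3 cm; three days later the water surface treated with compounds in acetone/water at about 0.5, 0.25, 0.125 and 0.063 kg/ha. Visual 0–9 injury rating versus control after 3–4 weeks in greenhouse.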

[4] = system: AMBROSIA ARTEMISIIFOLIA, L.; experiment: Postemergence herbicidal evaluation, AMBEL (Ragweed, Common)
Summary of the method: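 Common ragweed (Ambrosia artemisiifolia) seedlings were raised in jiffy flats for roughly two weeks, then sprayed postemergence through a nozzle at 40 psi with the test compound dispersed in 50/50 acetone/water carrying 0.5% TWEEN®20. The plants were kept on greenhouse benches under conventional care. Four to five weeks later, injury was rated visually on a 0-9 scale, and repeat tests were averaged.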

[5] = system: SETARIA VIRIDIS, (L) BEAU; experiment: Postemergence herbicidal evaluation, SETVI (Foxtail, Green); set-up: key to SETVI rating / Herbicidal effect rating, SETVI / SETVI: 0-9 visual rating scale vs untreated control
Summary of the method: as §1

[6] = system: CHENOPODIUM ALBUM, L.; experiment: Preemergence herbicidal evaluation, CHEAL (Lambsquarters, Common); conditions: rated four to five weeks after treatment
Summary of the method: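 Preemergence, greenhouse: seed + potting soil sown on ~1 inch soil in cups; aqueous acetone spray, ~0.125–0.50 kg/ha equivalent; rated 0-9 vs control at 4–5 wk.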

[7] = system: ZEA MAYS L.; experiment: Postemergence herbicidal evaluation, ZEAMX (Corn, Field)
Summary of the method: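 Corn seedlings were raised in jiffy flats for roughly two weeks, then sprayed postemergence with the test material dispersed in 50/50 acetone/water containing 0.5% TWEEN®20 surfactant, using a nozzle at 40 psi. Plants were kept on greenhouse benches under standard care and visually rated on a 0-9 scale four to five weeks after treatment.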

[8] = system: ABUTILON THEOPHRASTI, MEDIC.; experiment: Postemergence herbicidal evaluation, ABUTH (Velvetleaf)
Summary of the method: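 Velvetleaf (Abutilon theophrasti) seedlings were raised in jiffy flats for about two weeks and then sprayed postemergence. The test compound was dispersed in a 50/50 acetone/water mixture containing 0.5% TWEEN®20 and applied through a nozzle operating at 40 psi. Plants were kept on greenhouse benches and rated 0-9 four to five weeks after treatment.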

[9] = system: CHENOPODIUM ALBUM, L.; experiment: Postemergence herbicidal evaluation, CHEAL (Lambsquarters, Common)
Summary of the method: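 Seedlings of common lambsquarters (Chenopodium album) were raised in jiffy flats for roughly two weeks, then sprayed postemergence through a nozzle at 40 psi with test compound dispersed in 50/50 acetone/water containing 0.5% TWEEN®20 surfactant. Plants were kept on greenhouse benches under standard care and rated visually on a 0-9 scale versus controls.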

[10] = system: GALIUM APARINE; experiment: Postemergence herbicidal evaluation, GALAP (Galium); set-up: key to GALAP rating / Herbicidal effect rating, GALAP / GALAP: 0-9 visual rating scale vs untreated control
Summary of the method: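 Galium (GALAP) seedlings were raised in jiffy flats for about two weeks, then sprayed with test compounds dispersed in 50/50 acetone/water containing 0.5% TWEEN®20, delivered through a nozzle at 40 psi. Plants were kept on greenhouse benches and visually rated 0-9 against a control four to five weeks later; repeat tests were averaged.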

[11] = system: IPOMOEA SPP.; experiment: Postemergence herbicidal evaluation, IPOSS (Morningglory spp.);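 also: higher means more injury with 8 approaching complete kill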
Summary of the method: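 Seedlings of morningglory (Ipomoea spp.) were raised in jiffy flats for roughly two weeks. They were then sprayed postemergence through a nozzle at 40 psi with test compound dispersed in 50/50 acetone/water containing 0.5% TWEEN®20 surfactant. Plants were kept on greenhouse benches under standard care and visually rated 0-9 against controls four to five weeks after treatment.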

## COC(=O)Cn1c(=O)n(C)c(=O)n(-c2cc(Oc3ccc(SC)cc3Cl)ccc2[N+](=O)[O-])c1=O [Compound 34, Methyl 3-{5-[2-chloro-4-(methylthio)-phenoxy]-2-nitrophenyl}tetrahydro-5-methyl-2,4,6-trioxo-s-triazine-1(2H)-acetate]
[1]; Rate 0.125 kg/ha
  TRZAWO rating: 2.0
[1]; Rate 0.250 kg/ha
  TRZAWO rating: 2.0
[1]; Rate 0.500 kg/ha
  TRZAWO rating: 2.0
[2]; Rate 0.125 kg/ha
  ECHCG rating: 0.0
[2]; Rate 0.250 kg/ha
  ECHCG rating: 0.0
[2]; Rate 0.500 kg/ha
  ECHCG rating: 0.0
[3]
  Herbicidal effect rating, ORYSAT: 0.0
[4]; Rate 0.125 kg/ha
  AMBEL rating: 2.0
[4]; Rate 0.250 kg/ha
  AMBEL rating: 2.0
[4]; Rate 0.500 kg/ha
  AMBEL rating: 2.0
[5]; Rate 0.125 kg/ha
  SETVI rating: 0.0
[5]; Rate 0.250 kg/ha
  SETVI rating: 0.0
[5]; Rate 0.500 kg/ha
  SETVI rating: 0.0
[6]; Rate 0.125 kg/ha
  CHEAL herbicidal rating: 0.0
[6]; Rate 0.250 kg/ha
  CHEAL herbicidal rating: 0.0
[6]; Rate 0.500 kg/ha
  CHEAL herbicidal rating: 0.0

## COC(=O)Cn1c(=O)n(C)c(=O)n(-c2cc(Oc3cc(Cl)cc(Cl)c3)ccc2[N+](=O)[O-])c1=O [Compound 35, Methyl 3-[5-(3,5-dichlorophenoxy)-2-nitrophenyl]tetrahydro-5-methyl-2,4,6-trioxo-s-triazine-1(2H)-acetate]
[7]; Rate 0.125 kg/ha
  ZEAMX rating: 1.0
[7]; Rate 0.250 kg/ha
  ZEAMX rating: 1.0
[7]; Rate 0.500 kg/ha
  ZEAMX rating: 1.0
[8]; Rate 0.125 kg/ha
  ABUTH rating: 0.0
[8]; Rate 0.250 kg/ha
  ABUTH rating: 0.0
[8]; Rate 0.500 kg/ha
  ABUTH rating: 0.0
[1]; Rate 0.125 kg/ha
  TRZAWO rating: 0.0
[1]; Rate 0.250 kg/ha
  TRZAWO rating: 0.0
[1]; Rate 0.500 kg/ha
  TRZAWO rating: 0.0
[2]; Rate 0.125 kg/ha
  ECHCG rating: 0.0
[2]; Rate 0.250 kg/ha
  ECHCG rating: 0.0
[2]; Rate 0.500 kg/ha
  ECHCG rating: 0.0
[9]; Rate 0.125 kg/ha
  CHEAL rating: 0.0
[9]; Rate 0.250 kg/ha
  CHEAL rating: 0.0
[9]; Rate 0.500 kg/ha
  CHEAL rating: 0.0
[3]
  Herbicidal effect rating, ORYSAT: 0.0
[4]; Rate 0.125 kg/ha
  AMBEL rating: 0.0
[4]; Rate 0.250 kg/ha
  AMBEL rating: 0.0
[4]; Rate 0.500 kg/ha
  AMBEL rating: 0.0
[5]; Rate 0.125 kg/ha
  SETVI rating: 0.0
[5]; Rate 0.250 kg/ha
  SETVI rating: 0.0
[5]; Rate 0.500 kg/ha
  SETVI rating: 0.0
[6]; Rate 0.500 kg/ha
  CHEAL herbicidal rating: 0.0
[10]; Rate 0.125 kg/ha
  GALAP rating: 0.0
[10]; Rate 0.250 kg/ha
  GALAP rating: 0.0
[10]; Rate 0.500 kg/ha
  GALAP rating: 0.0

## Cn1c(=O)[nH]c(=O)n(-c2cccc(Oc3ccc(C(F)(F)F)cc3Cl)c2)c1=O [E, reference compound]
[7]; Rate 0.063 kg/ha
  ZEAMX: 1.5
[7]; Rate 0.125 kg/ha
  ZEAMX: 1.5
[7]; Rate 0.250 kg/ha
  ZEAMX: 1.5
[7]; Rate 0.500 kg/ha
  ZEAMX: 2.5
[8]; Rate 0.063 kg/ha
  ABUTH: 4.0
[8]; Rate 0.125 kg/ha
  ABUTH: 5.0
[8]; Rate 0.250 kg/ha
  ABUTH: 5.0
[8]; Rate 0.500 kg/ha
  ABUTH: 6.0
[1]; Rate 0.063 kg/ha
  TRZAWO: 1.0
[1]; Rate 0.125 kg/ha
  TRZAWO: 1.0
[1]; Rate 0.250 kg/ha
  TRZAWO: 1.0
[1]; Rate 0.500 kg/ha
  TRZAWO: 1.5
[2]; Rate 0.063 kg/ha
  ECHCG: 0.0
[2]; Rate 0.125 kg/ha
  ECHCG: 0.0
[2]; Rate 0.250 kg/ha
  ECHCG: 1.0
[2]; Rate 0.500 kg/ha
  ECHCG: 3.0
[11]; Rate 0.063 kg/ha
  IPOSS: 5.0
[11]; Rate 0.125 kg/ha
  IPOSS: 5.0
[11]; Rate 0.250 kg/ha
  IPOSS: 5.0
[11]; Rate 0.500 kg/ha
  IPOSS: 6.0
[9]; Rate 0.063 kg/ha
  CHEAL: 7.0
[9]; Rate 0.125 kg/ha
  CHEAL: 7.0
[9]; Rate 0.250 kg/ha
  CHEAL: 8.0
[9]; Rate 0.500 kg/ha
  CHEAL: 8.0
[3]; Rate 0.250 kg/ha
  ORYSAT: 0.0
[3]; Rate 0.500 kg/ha
  ORYSAT: 0.0
[3]; Rate 1.000 kg/ha
  ORYSAT: 0.0
[4]; Rate 0.063 kg/ha
  AMBEL: 2.0
[4]; Rate 0.125 kg/ha
  AMBEL: 2.0
[4]; Rate 0.250 kg/ha
  AMBEL: 4.0
[4]; Rate 0.500 kg/ha
  AMBEL: 5.0
[5]; Rate 0.063 kg/ha
  SETVI: 0.0
[5]; Rate 0.125 kg/ha
  SETVI: 0.0
[5]; Rate 0.250 kg/ha
  SETVI: 1.0
[5]; Rate 0.500 kg/ha
  SETVI: 2.0
[10]; Rate 0.063 kg/ha
  GALAP: 3.0
[10]; Rate 0.125 kg/ha
  GALAP: 4.0
[10]; Rate 0.250 kg/ha
  GALAP: 5.0
[10]; Rate 0.500 kg/ha
  GALAP: 2.5
